PubChem BioAssay AID248 (DTP/NCI, 2004)
Values joined by “and” are separate entries in the source; they are usually repeats but may differ in a detail not shown here. Equal values may be shown once. Toxic doses and inconclusive results are not listed. Rule as the data show it: active = T/C of 150% or more; inactive = T/C below 125%.

System: L1210 leukemia ip in BDF1 mice, survival T/C
Assay: NCI In Vivo Anticancer Drug Screen. Data for tumor model L1210 Leukemia (intraperitoneal) in B6D2F1 (BDF1) mice
Conditions: endpoint: mean survival time, higher = longer survival
Procedure, shortened: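 Ratio derived from survival: compound-dosed mice over vehicle-dosed mice, all bearing a transplantable tumor.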

[1] = dose: 50.0 mg/kg/injection, schedule: Q01DX001 (ip), vehicle: Klucel (hydroxypropylcellulose) (HPC)
[2] = dose: 100.0 mg/kg/injection, schedule: Q01DX001 (ip), vehicle: Klucel (hydroxypropylcellulose) (HPC)
[3] = dose: 75.0 mg/kg/injection, schedule: Q01DX001 (ip), vehicle: saline
[4] = dose: 150.0 mg/kg/injection, schedule: Q01DX001 (ip), vehicle: saline
[5] = dose: 300.0 mg/kg/injection, schedule: Q01DX001 (ip), vehicle: saline
[6] = dose: 100.0 mg/kg/injection, schedule: Q01DX009 (ip), vehicle: Klucel (hydroxypropylcellulose) (HPC)
[7] = dose: 100.0 mg/kg/injection, schedule: Q04DX002 (ip), vehicle: Klucel (hydroxypropylcellulose) (HPC)
[8] = dose: 100.0 mg/kg/injection, schedule: Q04DX003 (ip), vehicle: Klucel (hydroxypropylcellulose) (HPC)
[9] = dose: 200.0 mg/kg/injection, schedule: Q01DX001 (ip), vehicle: Klucel (hydroxypropylcellulose) (HPC)
[10] = dose: 200.0 mg/kg/injection, schedule: Q01DX009 (ip), vehicle: Klucel (hydroxypropylcellulose) (HPC)
[11] = dose: 200.0 mg/kg/injection, schedule: Q04DX002 (ip), vehicle: Klucel (hydroxypropylcellulose) (HPC)
[12] = dose: 200.0 mg/kg/injection, schedule: Q04DX003 (ip), vehicle: Klucel (hydroxypropylcellulose) (HPC)
[13] = dose: 400.0 mg/kg/injection, schedule: Q04DX002 (ip), vehicle: Klucel (hydroxypropylcellulose) (HPC)
[14] = dose: 400.0 mg/kg/injection, schedule: Q04DX003 (ip), vehicle: Klucel (hydroxypropylcellulose) (HPC)
[15] = dose: 100.0 mg/kg/injection, schedule: Q04DX003 (ip), vehicle: saline with Tween-80
[16] = dose: 200.0 mg/kg/injection, schedule: Q04DX003 (ip), vehicle: saline with Tween-80
[17] = dose: 400.0 mg/kg/injection, schedule: Q04DX003 (ip), vehicle: saline with Tween-80
[18] = dose: 100.0 mg/kg/injection, schedule: Q01DX001 (ip), vehicle: carboxymethylcellulose (CMC)
[19] = dose: 200.0 mg/kg/injection, schedule: Q01DX001 (ip), vehicle: carboxymethylcellulose (CMC)
[20] = dose: 50.0 mg/kg/injection, schedule: Q01DX009 (ip), vehicle: saline with Tween-80
[21] = dose: 100.0 mg/kg/injection, schedule: Q01DX009 (ip), vehicle: saline with Tween-80
[22] = dose: 200.0 mg/kg/injection, schedule: Q01DX009 (ip), vehicle: saline with Tween-80
[23] = dose: 400.0 mg/kg/injection, schedule: Q01DX009 (ip), vehicle: saline with Tween-80

Measured: T/C

CO/N=C1\CC(C)N2C(=O)C(C(C)C)NC(=O)C(NC(=O)c3c4nc5c(C(=O)NC6C(=O)NC(C(C)C)C(=O)N7C(C)CC(O)C7C(=O)N(C)CC(=O)N(C)C(C(C)C)C(=O)OC6C)ccc(C)c5oc-4c(C)c(=O)c3N)C(CO)OC(=O)C(C)N(C)C(=O)CN(C)C(=O)C12 (stereo not drawn)
inactive: dose: 0.1 mg/kg/injection, schedule: Q01DX009 (ip), vehicle: saline + alcohol 96 % of control | dose: 0.2 mg/kg/injection, schedule: Q01DX009 (ip), vehicle: saline + alcohol 102 % of control | dose: 0.3 mg/kg/injection, schedule: Q04DX003 (ip), vehicle: saline + alcohol 96 % of control | dose: 0.4 mg/kg/injection, schedule: Q01DX009 (ip), vehicle: saline + alcohol 97 % of control | dose: 0.6 mg/kg/injection, schedule: Q04DX003 (ip), vehicle: saline + alcohol 107 % of control | dose: 0.8 mg/kg/injection, schedule: Q01DX001 (ip), vehicle: saline + alcohol 97 % of control | dose: 0.8 mg/kg/injection, schedule: Q01DX009 (ip), vehicle: saline + alcohol 111 % of control | dose: 1.2 mg/kg/injection, schedule: Q04DX003 (ip), vehicle: saline + alcohol 97 % of control | dose: 1.6 mg/kg/injection, schedule: Q01DX001 (ip), vehicle: saline + alcohol 103 % of control | dose: 1.6 mg/kg/injection, schedule: Q01DX009 (ip), vehicle: saline + alcohol 100 % of control | dose: 2.4 mg/kg/injection, schedule: Q04DX003 (ip), vehicle: saline + alcohol 112 % of control | dose: 3.2 mg/kg/injection, schedule: Q01DX001 (ip), vehicle: saline + alcohol 110 % of control | dose: 4.8 mg/kg/injection, schedule: Q04DX003 (ip), vehicle: saline + alcohol 110 % of control | dose: 6.4 mg/kg/injection, schedule: Q01DX001 (ip), vehicle: saline + alcohol 106 % of control | dose: 12.8 mg/kg/injection, schedule: Q01DX001 (ip), vehicle: saline + alcohol 101 % of control

CCCCN1CCCC(OC(=O)N(C)C)C1 (stereo not drawn)
inactive: dose: 25.0 mg/kg/injection, schedule: Q04DX002 (ip), vehicle: saline 105 % of control | dose: 50.0 mg/kg/injection, schedule: Q04DX002 (ip), vehicle: saline 102 % of control | dose: 100.0 mg/kg/injection, schedule: Q04DX002 (ip), vehicle: saline 97 % of control

CC1(C)C2CCC1(C)C(N=C(N)CSS(=O)(=O)O)C2 (stereo not drawn)
inactive: dose: 12.5 mg/kg/injection, schedule: Q04DX002 (ip), vehicle: Klucel (hydroxypropylcellulose) (HPC) 112 % of control | dose: 25.0 mg/kg/injection, schedule: Q01DX001 (ip), vehicle: Klucel (hydroxypropylcellulose) (HPC) 101 % of control | dose: 25.0 mg/kg/injection, schedule: Q04DX002 (ip), vehicle: Klucel (hydroxypropylcellulose) (HPC) 98 % of control | [1] 98 % of control | [2] 87 % of control

O=C(Nc1c(Oc2ccc(Cl)c(Cl)c2)ccc(Cl)c1S(=O)(=O)O)Nc1c(Oc2ccc(Cl)c(Cl)c2)ccc(Cl)c1S(=O)(=O)O
inactive: [3] 101 % of control | [4] 99 % of control | [5] 96 % of control

O=C(Nc1cccc(O)c1)Nc1ccccc1F
inactive: [2] 102 % of control | [6] 102 % of control and 90 % of control | [7] 97 % of control and 92 % of control | [8] 103 % of control | [9] 104 % of control | [10] 96 % of control and 101 % of control | [11] 98 % of control and 99 % of control | [12] 110 % of control | dose: 400.0 mg/kg/injection, schedule: Q01DX001 (ip), vehicle: Klucel (hydroxypropylcellulose) (HPC) 104 % of control | dose: 400.0 mg/kg/injection, schedule: Q01DX009 (ip), vehicle: Klucel (hydroxypropylcellulose) (HPC) 98 % of control and 101 % of control | [13] 115 % of control and 89 % of control | [14] 98 % of control

CC(C(O)c1ccccc1)[N+](=O)[O-] (stereo not drawn)
inactive: [15] 100 % of control | [16] 95 % of control | [17] 101 % of control

Cc1nc2[nH]c(=O)[nH]c(=O)c2[nH]1
inactive: [15] 91 % of control | [16] 101 % of control | [17] 90 % of control

Nc1nc2ncc(CCCNc3ccc(C(=O)NC(CCC(=O)O)C(=O)O)cc3)nc2c(=O)[nH]1 (stereo not drawn)
inactive: dose: 50.0 mg/kg/injection, schedule: Q01DX001 (ip), vehicle: carboxymethylcellulose (CMC) 94 % of control | [18] 108 % of control | [19] 94 % of control

CC1=NN(c2ccccc2)C(=O)/C1=C\c1ccccc1
inactive: [6] 97 % of control | [10] 95 % of control

OCCOC(c1ccccc1)(c1ccccc1)c1ccccc1
inactive: [20] 98 % of control | [21] 100 % of control | [22] 91 % of control

CSc1nc(Cl)cc(Sc2nc(N)nc3nc[nH]c23)n1
inactive: dose: 100.0 mg/kg/injection, schedule: Q01DX Z (ip), vehicle: methylcellulose (MC) 110 % of control

O=C(N/N=C\c1cc(Cl)ccc1[N+](=O)[O-])c1ccccc1
inactive: [8] 97 % of control | [12] 97 % of control | [14] 103 % of control

CC12C=CC(CC1)C2O (stereo not drawn)
inactive: [21] 105 % of control | [15] 100 % of control | [22] 96 % of control | [16] 96 % of control | [17] 98 % of control

CC(=O)Oc1ccc(-c2ccc(Cl)cc2)cc1
inactive: [18] 103 % of control | [19] 109 % of control | dose: 400.0 mg/kg/injection, schedule: Q01DX001 (ip), vehicle: carboxymethylcellulose (CMC) 97 % of control

NNC(=O)CCC(=O)NN
inactive: [21] 100 % of control | [22] 99 % of control | [23] 100 % of control

C=C(C)C1(C)C(=O)NC(=S)NC1=O
inactive: [3] 108 % of control | [4] 100 % of control | [5] 107 % of control

CCCCCCCCCCCC(CCCCCCCC)CCCCCCCC
inactive: dose: 100.0 mg/kg/injection, schedule: Q04DX003 (ip), vehicle: saline 94 % of control | dose: 200.0 mg/kg/injection, schedule: Q04DX003 (ip), vehicle: saline 93 % of control | dose: 400.0 mg/kg/injection, schedule: Q04DX003 (ip), vehicle: saline 100 % of control

COc1ccc(N=Cc2ccc(Cl)cc2)cc1C(F)(F)F
inactive: [8] 98 % of control | [12] 89 % of control | [14] 104 % of control

CCO/C=C1\SC(=S)N(c2ccccc2C)C1=O
inactive: [8] 98 % of control | [15] 100 % of control | [10] 91 % of control | [12] 109 % of control | [16] 100 % of control | [14] 104 % of control | [17] 91 % of control

CC(C)(C)OC(=O)NC(CC(=O)O)C(=O)O (stereo not drawn)
inactive: dose: 25.0 mg/kg/injection, schedule: Q01DX009 (ip), vehicle: saline with Tween-80 99 % of control | [20] 89 % of control | [21] 101 % of control and 117 % of control | [7] 90 % of control | [22] 96 % of control | [11] 101 % of control | [23] 91 % of control | [13] 101 % of control

O=C(NCCCl)NNC(=O)c1ccccc1
inactive: [8] 117 % of control | [12] 112 % of control

COC(=O)c1cc2ccccc2cc1OCC(=O)NCc1ccc(Cl)cc1
inactive: [1] 105 % of control | [2] 94 % of control | [9] 97 % of control

CCCCCCCCCCCCC/C=C\CC(CC(=O)O)C(=O)Nc1cccc2cnccc12 (stereo not drawn)
inactive: [8] 97 % of control | [12] 103 % of control | [14] 97 % of control

ClC1=C(Cl)C(Cl)(Cl)C(Cl)(Cl)C1(Cl)Cl
inactive: dose: 12.5 mg/kg/injection, schedule: Q01DX009 (ip), vehicle: saline 99 % of control | dose: 25.0 mg/kg/injection, schedule: Q01DX009 (ip), vehicle: Klucel (hydroxypropylcellulose) (HPC) 92 % of control | dose: 25.0 mg/kg/injection, schedule: Q01DX009 (ip), vehicle: saline 95 % of control | dose: 50.0 mg/kg/injection, schedule: Q01DX009 (ip), vehicle: Klucel (hydroxypropylcellulose) (HPC) 96 % of control | dose: 50.0 mg/kg/injection, schedule: Q01DX009 (ip), vehicle: saline 97 % of control | [6] 87 % of control | [8] 104 % of control | [12] 96 % of control | [14] 102 % of control
